What was measured:
MV4;11 cells = assay: Cell Titer-Glo Luminescent Cell Viability Assay, cell growth inhibition against MV4;11 cells; assay type: cell-based; settings: Homo sapiens, MV4-11, 120 h, MV4;11 cells, Day 5, 10-point dose curve 0 to 50 μM; read-out: Cell Titer Glo IC50 (5 d)
Experimental: Cell growth inhibition against MV4;11 cells was confirmed for the synthetic compounds. The Cell Titer-Glo Luminescent Cell Viability Assay (Promega, USA) was used to determine the number of viable cells in culture based on quantitation of the ATP present, which signals the presence of metabolically active cells. This assay was run in a 96-well plate format arrayed in a 10-point dose curve, ranging from 0 to 50 μM with 4-fold dilutions for each compound. Cells are seeded on Day 0 at 3750 cells per well. At Day 5, a portion of each well is assayed for viability according to the Cell Titer-Glo protocol. Briefly, cells/plates were centrifuged at 1100×g for 5 minutes. 100 μL of media was removed from each well and replaced with 100 μL of CellTiter-Glo. The plates were shaken at room temperature for 10 minutes and measured on a luminescence plate reader. Another portion of each well from the Day 5 plate is used to seed a new 96 plate containing fresh compound and media set up in the equivalent 10-point dose curve array in order to continue the cell growth inhibition assay for another 5 days. A final timepoint is collected at Day 10 using the Cell Titer-Glo protocol. Luminescence was detected on an EnVision® Multilabel Plate Reader (Perkin Elmer, Waltham, Mass.) and IC50 determination was made using Graph Pad Prism software.

LSD1 = LSD1 (Homo sapiens, UniProt O60341); assay: LSD1 10-dose IC50 fluorescence coupling enzyme assay (HRP/Amplex Red, resorufin); assay type: biochemical; settings: 10 M histone H3(1-21)K4me2 peptide substrate; 3-fold serial dilution in duplicate starting at 100 μM
Experimental: Compounds were tested in a 10-dose IC50 mode fluorescence coupling enzyme assay with 3-fold serial dilution in duplicate starting at 100 μM. The production of FAD-dependent H2O2 as a result of demethylase activity of LSD1 on […] histone H3(1-21)K4me2 peptide substrate was measured by coupling with HRP and Amplex Red to yield resorufin (fluorescence measured at Ex/Em=535/590 nm on EnVision, Perkin Elmer).

SMILES	IC50 (MV4;11 cells)	IC50 (LSD1)
COc1ccc(-n2nc(C(=O)N[C@@H]3CCC[C@@H](N)C3)cc2-c2ccc(C#N)c(F)c2)cc1 [Example 23, N-((1R,3R)-3-aminocyclohexyl)-5-(4-cyano-3-fluorophenyl)-1-(4-methoxyphenyl)-1H-pyrazole-3-carboxamide 2,2,2-trifluoroacetate]	1000 to 10000 nM	1000 to 10000 nM
COc1ccc(-n2nc(C(=O)NC3CCNCC3)cc2-c2ccc(C#N)c(F)c2)cc1 [Example 24, 5-(4-Cyano-3-fluorophenyl)-1-(4-methoxyphenyl)-N-(piperidin-4-yl)-1H-pyrazole-3-carboxamide]	1000 to 10000 nM	1000 to 10000 nM
COc1ccc(-n2nc(C(=O)N[C@H]3CCC[C@H](N)C3)cc2-c2ccc(C#N)c(F)c2)cc1 [Example 25, N-((1S,3S)-3-aminocyclohexyl)-5-(4-cyano-3-fluorophenyl)-1-(4-methoxyphenyl)-1H-pyrazole-3-carboxamide 2,2,2-trifluoroacetate]	1000 to 10000 nM	1000 to 10000 nM
COc1ccc(-n2nc(C(=O)N[C@H]3CCNC3)cc2-c2ccc(C#N)c(F)c2)cc1 [Example 26, (S)-5-(4-cyano-3-fluorophenyl)-1-(4-methoxyphenyl)-N-(pyrrolidin-3-yl)-1H-pyrazole-3-carboxamide 2,2,2-trifluoroacetate]	1000 to 10000 nM	500 to 1000 nM
COc1ccc(-n2nc(C(=O)N[C@@H]3CCNC3)cc2-c2ccc(C#N)c(F)c2)cc1 [Example 27, (R)-5-(4-cyano-3-fluorophenyl)-1-(4-methoxyphenyl)-N-(pyrrolidin-3-yl)-1H-pyrazole-3-carboxamide 2,2,2-trifluoroacetate]	1000 to 10000 nM	1000 to 10000 nM
COc1ccc(-n2nc(C(=O)N[C@@H]3CCC[C@H](N)C3)cc2-c2ccc(C#N)c(F)c2)cc1 [Example 28, N-((1R,3S)-3-aminocyclohexyl)-5-(4-cyano-3-fluorophenyl)-1-(4-methoxyphenyl)-1H-pyrazole-3-carboxamide 2,2,2-trifluoroacetate]	1000 to 10000 nM	500 to 1000 nM
COc1ccc(-n2nc(C(=O)N3CCCC(NC(=N)N)C3)cc2-c2ccc(C#N)c(F)c2)cc1 (stereo not drawn) [Example 29, 1-(1-(5-(4-Cyano-3-fluorophenyl)-1-(4-methoxyphenyl)-1H-pyrazole-3-carbonyl)piperidin-3-yl)guanidine 2,2,2-trifluoroacetate]	> 10000 nM	1000 to 10000 nM
COc1ccc(-n2nc(C(=O)N3CC(N)C3)cc2-c2ccc(C#N)c(F)c2)cc1 [Example 31, 4-(3-(3-Aminoazetidine-1-carbonyl)-1-(4-methoxyphenyl)-1H-pyrazol-5-yl)-2-fluorobenzonitrile 2,2,2-trifluoroacetate]	> 10000 nM	> 10000 nM
COc1ccc(-n2nc(C(=O)N3CC(CN)C3)cc2-c2ccc(C#N)c(F)c2)cc1 [Example 32, 4-(3-(3-(Aminomethyl)azetidine-1-carbonyl)-1-(4-methoxyphenyl)-1H-pyrazol-5-yl)-2-fluorobenzonitrile 2,2,2-trifluoroacetate]	1000 to 10000 nM	1000 to 10000 nM
COc1ccc(Cn2nc(C(=O)N3CCC[C@@H](N)C3)cc2-c2ccc(C#N)c(F)c2)cc1 [Example 33, (R)-4-(3-(3-aminopiperidine-1-carbonyl)-1-(4-methoxybenzyl)-1H-pyrazol-5-yl)-2-fluorobenzonitrile 2,2,2-trifluoroacetate]	< 500 nM	< 500 nM
COc1ccc(Cn2nc(C(=O)N3CCC[C@H](N)C3)cc2-c2ccc(C#N)c(F)c2)cc1 [Example 34, (S)-4-(3-(3-aminopiperidine-1-carbonyl)-1-(4-methoxybenzyl)-1H-pyrazol-5-yl)-2-fluorobenzonitrile 2,2,2-trifluoroacetate]	1000 to 10000 nM	500 to 1000 nM
COc1ccc(-n2nc(C(=O)N3CCCC(N)C3)cc2-c2ccc(C#N)c(F)c2)cc1F (stereo not drawn) [Example 35, 4-(3-(3-Aminopiperidine-1-carbonyl)-1-(3-fluoro-4-methoxyphenyl)-1H-pyrazol-5-yl)-2-fluorobenzonitrile]	< 500 nM	< 500 nM

From patent US20260085082A1, “KDM1A INHIBITORS FOR THE TREATMENT OF DISEASE” (Imago Biosciences, Inc., priority 2022, published 2026)
